US10435361B2, “Kinase inhibitors” (Topivert Pharma Limited, priority 2013, dated 2019)

Assays:
Format in all cases: cell-based
HT29 cells = assay: IL-1β-induced IL-8 release in HT29 cells; settings: Homo sapiens, HT-29, assay (d), read-out: IC50 Values for Inhibition of Cytokine Release HT29 cells IL-8
Description: HT29 cells, a human colon adenocarcinoma cell line, are plated in a 96 well plate (24 hr) and pre-treated with compounds at the desired concentration for 2 hours before addition of 5 ng/mL of IL-1β (Abcam) for 24 hours. Supernatants are harvested for IL-8 quantification by Sandwich ELISA (Duo-set, R&D System). The IC50 is determined from the dose response curve.

PBMCs [1] = assay: LPS-induced TNFα/IL-8 release in PBMC cells; settings: Homo sapiens, assay (b), read-out: IC50 Values for Inhibition of Cytokine Release PBMCs IL-8
Outline: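 Healthy-donor PBMCs isolated by density gradient were pretreated with compound for 2 h, then stimulated with 1 ng/mL LPS (E. coli 0111:B4) for 24 h at 37° C., 5% CO2. IL-8 and TNFα in supernatants measured by sandwich ELISA.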

PBMCs [2] = assay: Cell mitosis assay in PBMCs; settings: Homo sapiens, PBMC, 5 μg/mL
Description: Peripheral blood mononucleocytes (PBMCs) from healthy subjects are separated from whole blood (Quintiles, London, UK) using a density gradient (Histopaque®-1077, Sigma-Aldrich, Poole, UK). The PBMCs (3 million cells per sample) are subsequently treated with 2% PHA (phytohaemagglutinin, Sigma-Aldrich, Poole, UK) for 48 hr, followed by a 20 hr exposure to varying concentrations of test compounds. At 2 hr before collection, PBMCs are treated with demecolcine (0.1 μg/mL; Invitrogen, Paisley, UK) to arrest cells in metaphase. To observe mitotic cells, PBMCs are permeabilised and fixed by adding Intraprep (50 μL; Beckman Coulter, France), and stained with anti-phospho-histone 3 (0.26 ng/L; #9701; Cell Signalling, Danvers, Mass.) and propidium iodide (1 mg/mL; Sigma-Aldrich, Poole, UK) as previously described (Muehlbauer P. A. and Schuler M. J., Mutation Research, 2003, 537:117-130). Fluorescence is observed using an ATTUNE flow cytometer (Invitrogen, Paisley, UK), gating for lymphocytes.

PBMCs [3] = assay: IL-2 and IFN gamma release in CD3/CD28 stimulated PBMC cells; settings: Homo sapiens, assay (c)
Description: PBMCs from healthy subjects are separated from whole blood using a density gradient (Lymphoprep, Axis-Shield Healthcare). Cells are added to a 96 well plate pre-coated with a mixture of CD3/CD28 monoclonal antibodies (0.3 μg/mL eBioscience and 3 μg/mL BD Pharmingen respectively). Compound at the desired concentration is then added to the wells and the plate left for 3 days under normal tissue culture conditions. […] The IC50 is determined from the dose response curve.

[4] = read-out: IC50 Values for Inhibition of Cytokine Release PBMCs IFNγ
[5] = read-out: IC50 Values for Inhibition of Cytokine Release PBMCs IL-2

Compound | IC50 (HT29 cells) | IC50 (PBMCs [1]) | inhibition at 5 µg/mL (PBMCs [2]) | IC50 (PBMCs [3]; [4]) | IC50 (PBMCs [3]; [5])
COCCOCCOCCOc1cc(Nc2nccc(Oc3ccc(NC(=O)Nc4cc(C(C)(C)C)cc(NS(C)(=O)=O)c4-c4ccccc4)c4ccccc34)n2)cc(OC)c1 [83(a), N-(4-(tert-butyl)-6-(3-(4-((2-((3-methoxy-5-(2-(2-(2-methoxyethoxy)ethoxy)ethoxy)phenyl)-amino)pyrimidin-4-yl)oxy)naphthalen-1-yl)ureido)-[1,1′-biphenyl]-2-yl)methane-sulfonamide] | 62.5 nM | 39 nM | – | – | –
COCCOCCOCCOc1cc(Nc2nccc(Oc3ccc(NC(=O)Nc4cc(N5CCOCC5)ccc4OC)c4ccccc34)n2)cc(OC)c1 [Example 12, 1-(4-((2-((3-Methoxy-5-(2-(2-(2-methoxyethoxy)ethoxy)ethoxy)phenyl)amino)-pyrimidin-4-yl)oxy)naphthalen-1-yl)-3-(2-methoxy-5-morpholinophenyl)urea] | 1320 nM | 107 nM | – | – | –
CNC(=O)c1cc(NC(=O)Nc2ccc(Oc3ccnc(Nc4cc(OC)cc(OCCOCCOCCOC)c4)n3)c3ccccc23)cc(C(C)(C)C)c1 [Example 23, 3-(tert-Butyl)-5-(3-(4-((2-((3-methoxy-5-(2-(2-(2-methoxyethoxy)ethoxy)ethoxy)phenyl)-amino)pyrimidin-4-yl)oxy)naphthalen-1-yl)ureido)-N-methylbenzamide] | 4.7 nM | 2.6 nM | 25.4% | 9.1 nM | 17.1 nM
COCCOCCOc1cc(Nc2nccc(Oc3ccc(NC(=O)Nc4cc(C(C)(C)C)cc(NS(C)(=O)=O)c4OC)c4ccccc34)n2)cc(OC)c1 [Example 36, N-(5-(tert-Butyl)-2-methoxy-3-(3-(4-((2-((3-methoxy-5-(2-(2-methoxyethoxy)ethoxy)-phenyl)amino)pyrimidin-4-yl)oxy)naphthalen-1-yl)ureido)phenyl)methanesulfonamide] | 0.8 nM | 1.8 nM | 45% | 5.7 nM | 65.3 nM
C#Cc1cc(Nc2cc(Oc3ccc(NC(=O)Nc4cc(C(C)(C)C)cc(C(=O)NC)c4OC)c4ccccc34)ccn2)cc(C(=O)NCCN2CCOCC2)c1 [Example 39, 5-(tert-Butyl)-3-(3-(4-((2-((3-ethynyl-5-((2-morpholinoethyl)carbamoyl)phenyl)amino)-pyridin-4-yl)oxy)naphthalen-1-yl)ureido)-2-methoxy-N-methylbenzamide] | 5.3 nM | 2.5 nM | 34.7% | 9.6 nM | 132 nM
COCCOCCOCCOCCOCCOCCOCCOc1cc(Nc2cc(Oc3ccc(NC(=O)Nc4cc(C(C)(C)C)cc(NS(C)(=O)=O)c4OC)c4ccccc34)ccn2)cc(OC)c1 [Example 45, N-(3-(3-(4-((2-((3-(2,5,8,11,14,17,20-Heptaoxadocosan-22-yloxy)-5-methoxyphenyl)-amino)pyridin-4-yl)oxy)naphthalen-1-yl)ureido)-5-(tert-butyl)-2-methoxyphenyl)methane-sulfonamide] | 2.1 nM | 1.4 nM | 45% | 7.8 nM | 182 nM
C#Cc1cc(Nc2cc(Oc3ccc(NC(=O)Nc4cc(C(C)(C)C)cc(C(N)=O)c4OC)c4ccccc34)ccn2)cc(C(=O)NCCN2CCOCC2)c1 [Example 48, 3-((4-((4-(3-(5-(tert-Butyl)-3-carbamoyl-2-methoxyphenyl)ureido)naphthalen-1-yl)oxy)pyridin-2-yl)amino)-5-ethynyl-N-(2-morpholinoethyl)benzamide] | 10.2 nM | 3.4 nM | 44.2% | 17.2 nM | 144 nM
C#Cc1cc(Nc2cc(Oc3ccc(NC(=O)Nc4cc(C(C)(C)C)cc(NS(C)(=O)=O)c4OC)c4ccccc34)ccn2)cc(C(=O)NCCN2CCOCC2)c1 [Example 49, 3-((4-((4-(3-(5-(tert-Butyl)-2-methoxy-3-(methylsulfonamido)phenyl)ureido)naphthalen-1-yl)oxy)pyridin-2-yl)amino)-5-ethynyl-N-(2-morpholinoethyl)benzamide] | 8.6 nM | 2.5 nM | 40.1% | 11 nM | 227 nM
COCCOCCOCCOc1cc(Nc2nccc(Oc3ccc(NC(=O)Nc4cc(C(C)(C)C)cc(C(=O)NC5COC5)c4OC)c4ccccc34)n2)cc(OC)c1 [Example 51, 5-(tert-Butyl)-2-methoxy-3-(3-(4-((2-((3-methoxy-5-(2-(2-(2-methoxyethoxy)ethoxy)-ethoxy)phenyl)amino)pyrimidin-4-yl)oxy)naphthalen-1-yl)ureido)-N-(oxetan-3-yl)-benzamide] | 1.7 nM | 1.6 nM | 44.3% | 1.8 nM | 46.3 nM
COCCOCCOCCOc1cc(Nc2nccc(Oc3ccc(NC(=O)Nc4cc(C(C)(C)C)cc(-c5cnn[nH]5)c4OC)c4ccccc34)n2)cc(OC)c1 [Example 70, 1-(5-(tert-Butyl)-2-methoxy-3-(1H-1,2,3-triazol-5-yl)phenyl)-3-(4-((2-((3-methoxy-5-(2-(2-(2-methoxyethoxy)ethoxy)ethoxy)phenyl)amino)pyrimidin-4-yl)oxy)naphthalen-1-yl)urea] | 4.1 nM | 4.9 nM | – | 7.4 nM | –
COCCOCCOCCOc1cc(Nc2nccc(Oc3ccc(NC(=O)Nc4cc(C(C)(C)C)cc(NS(=O)(=O)C(F)(F)F)c4OC)c4ccccc34)n2)cc(OC)c1 [Example 71, N-(5-(tert-Butyl)-2-methoxy-3-(3-(4-((2-((3-methoxy-5-(2-(2-(2-methoxyethoxy)ethoxy)-ethoxy)phenyl)amino)pyrimidin-4-yl)oxy)naphthalen-1-yl)ureido)phenyl)-1,1,1-trifluoro-methanesulfonamide] | 1150 nM | 114 nM | – | – | –
COCCOCCOCCOc1cc(Nc2nccc(Oc3ccc(NC(=O)Nc4cc(C(C)(C)C)cc(NS(=O)(=O)C5CCCCC5)c4OC)c4ccccc34)n2)cc(OC)c1 [Example 72, N-(5-(tert-Butyl)-2-methoxy-3-(3-(4-((2-((3-methoxy-5-(2-(2-(2-methoxyethoxy)ethoxy)-ethoxy)phenyl)amino)pyrimidin-4-yl)oxy)naphthalen-1-yl)ureido)phenyl)cyclohexane-sulfonamide] | 19.2 nM | 11.8 nM | – | – | –
COCCOCCOCCOc1cc(Nc2nccc(Oc3ccc(NC(=O)Nc4cc(C(C)(C)C)cc(NS(=O)(=O)N5CCCCC5)c4OC)c4ccccc34)n2)cc(OC)c1 [Example 73, N-(5-(tert-Butyl)-2-methoxy-3-(3-(4-((2-((3-methoxy-5-(2-(2-(2-methoxyethoxy)ethoxy)-ethoxy)phenyl)amino)pyrimidin-4-yl)oxy)naphthalen-1-yl)ureido)phenyl)piperidine-1-sulfonamide] | 31.6 nM | 19 nM | – | – | –
COCCOCCOCCOc1cc(Nc2nccc(Oc3ccc(NC(=O)Nc4cc(C(C)(C)C)cc(NS(=O)(=O)N(C)C)c4OC)c4ccccc34)n2)cc(OC)c1 [Example 74, N-(5-(tert-Butyl)-2-methoxy-3-(3-(4-((2-((3-methoxy-5-(2-(2-(2-methoxyethoxy)ethoxy)-ethoxy)phenyl)amino)pyrimidin-4-yl)oxy)naphthalen-1-yl)ureido)phenyl)dimethylamino-sulfonamide] | 11.7 nM | 6.6 nM | – | – | –
COc1c(NC(=O)Nc2ccc(Oc3ccnc(NCc4ccccn4)c3)c3ccccc23)cc(C(C)(C)C)cc1C(=O)NC1COC1 [Example 80, 5-(tert-Butyl)-2-methoxy-N-(oxetan-3-yl)-3-(3-(4-((2-((pyridin-2-ylmethyl)amino)pyridin-4-yl)oxy)naphthalen-1-yl)ureido)benzamide] | – | 4.3 nM | 70.4% | 23.8 nM | –
COc1cccc(Nc2cc(Oc3ccc(NC(=O)Nc4cc(C(C)(C)C)cc(C(=O)NC5COC5)c4OC)c4ccccc34)ccn2)c1 [Example 81, 5-(tert-Butyl)-2-methoxy-3-(3-(4-((2-((3-methoxyphenyl)amino)pyridin-4-yl)oxy)naphthalen-1-yl)ureido)-N-(oxetan-3-yl)benzamide] | – | 2.7 nM | 58.1% | 4 nM | 98.8 nM
